Experimental findings from patent publication US9433621B2, “Substituted pyridine and pyrimidine derivatives and their use in treating viral infections” (Merck Sharp & Dohme Corp., priority 2010, dated 2016) are described below.

A value given as a limit tells only on which side of the number the result lay.

The experiment has as its system HCV replicon. In words: Cell-Based HCV Replicon Assay. The settings on record: Hepatitis C virus; HCV Replicon assay, EC90 range, Table VI; read-out: EC90. Put shortly:
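EC50 and EC90 taken from sigmoid fits of ΔCT (5B minus GAPDH) as the concentrations raising ΔCT by 1 and 3.2 over baseline, via multiplex real-time RT-PCR on lysates after 3 days. Replicon cells at 5000/well; 10 two-fold dilutions from 25–1 μM, 0.5% DMSO, 10% FBS.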
Background: Replicon systems follow genome replication, usually without infectious particles.
As to `COC1(CCNc2nc(C)c(-c3nc4c(C)nccc4s3)c(N[C@@H]3C[C@H](C(C)(C)O)[C@@H](O)[C@H]3O)n2)CCCC1` [Example 5101], the concentration for an effect of 90% (EC90) – broadly, the concentration needed for an effect of 90% – was less than 500 nM.

On to `CO[C@@]1(CNc2nc(C)c(-c3nc4c(C)nccc4s3)c(N[C@@H]3C[C@H](C(C)(C)O)[C@@H](O)[C@H]3O)n2)CCOC1` [Example 5102], for which the EC90 is less than 500 nM.

As to `CO[C@@]1(CNc2nc(C)c(-c3nc4c(C)nccc4s3)c(N[C@@H]3C[C@H](C4(O)CCCC4)[C@@H](O)[C@H]3O)n2)CCOC1` [Example 5103], the EC90 is less than 500 nM.

As for `COC[C@@H](C)Nc1nc(C)c(-c2nc3c(C)nccc3s2)c(N[C@@H]2C[C@H](C3(O)CCCC3)[C@@H](O)[C@H]2O)n1` [Example 5104], the EC90 was less than 500 nM.

As to `COCCNc1nc(C)c(-c2nc3c(C)nccc3s2)c(N[C@@H]2C[C@H]([C@H](O)C(C)C)[C@@H](O)[C@H]2O)n1` [Example 5105], the EC90 was less than 500 nM.

For `Cc1nc(NCc2cc(F)c(F)cc2F)nc(N[C@@H]2C[C@H]([C@H](O)C(C)C)[C@@H](O)[C@H]2O)c1-c1nc2c(C)nccc2s1` [Example 5106], the EC90 is less than 500 nM.

On to `Cc1nc(N)nc(N[C@@H]2C[C@H](C3(O)CCCC3)[C@@H](O)[C@H]2O)c1-c1nc2c(C)nccc2s1` [Example 5107], for which the EC90 is less than 500 nM.

Regarding `Cc1nc(NC2(C3CCCC3)CC2)nc(N[C@@H]2C[C@H]([C@H](O)C(C)C)[C@@H](O)[C@H]2O)c1-c1nc2c(C)nccc2s1` [Example 5108], the EC90 is less than 500 nM.

Consider `Cc1nc(NCC2(O)CCCC2)nc(N[C@@H]2C[C@H](C3(O)CCCC3)[C@@H](O)[C@H]2O)c1-c1nc2c(C)nccc2s1` [Example 5110], for which the EC90 is less than 500 nM.

For `Cc1nc(NCC2(O)CC2)nc(N[C@@H]2C[C@H](C3(O)CCCC3)[C@@H](O)[C@H]2O)c1-c1nc2c(C)nccc2s1` [Example 5111], the EC90 was less than 500 nM.

With `CCO[C@H]1C[C@H](CNc2nc(C)c(-c3nc4c(C)nccc4s3)c(N[C@@H]3C[C@H](C4(O)CCCC4)[C@@H](O)[C@H]3O)n2)C1` [Example 5112], the EC90 was less than 500 nM.

With `Cc1nc(NCC(F)(F)C(F)(F)C(F)(F)F)nc(N[C@@H]2C[C@H](C3(O)CCCC3)[C@@H](O)[C@H]2O)c1-c1nc2c(C)nccc2s1` [Example 5113], the EC90 lay within 5000 to 25000 nM.

Consider `Cc1nc(NCC(F)(F)C(F)(F)F)nc(N[C@@H]2C[C@H](C3(O)CCCC3)[C@@H](O)[C@H]2O)c1-c1nc2c(C)nccc2s1` [Example 5114], for which the 90% effect concentration (EC90) is less than 500 nM.

Regarding `Cc1nc(NCC2(O)CCOC2)nc(N[C@@H]2C[C@H](C3(O)CCCC3)[C@@H](O)[C@H]2O)c1-c1nc2c(C)nccc2s1` (stereo partly shown) [Example 5115], the EC90 was less than 500 nM.

In the case of `Cc1nc(NCC(F)(F)F)nc(NC2(CO)CCCC2)c1-c1nc2c(C)nccc2s1` [Example 5116], the EC90 is less than 500 nM.

Take `Cc1nc(NCc2c(F)cccc2F)nc(NC2(CO)CCCC2)c1-c1nc2c(C)nccc2s1` [Example 5117]: the EC90 is less than 500 nM.

Regarding `Cc1nc(NCC2(O)CC2)nc(N[C@@H]2C[C@H](CS(=O)(=O)c3cc(F)cc(F)c3)[C@@H](O)[C@H]2O)c1-c1nc2c(C)nccc2s1` [Example 5118], the EC90 was less than 500 nM.

Regarding `Cc1nc(NCC2(O)CCCC2)nc(N[C@@H]2C[C@H](CS(=O)(=O)c3cc(F)cc(F)c3)[C@@H](O)[C@H]2O)c1-c1nc2c(C)nccc2s1` [Example 5119], the EC90 was less than 500 nM.

Turning to `Cc1nc(NCCC2(O)CCCC2)nc(N[C@@H]2C[C@H](CS(=O)(=O)c3cc(F)cc(F)c3)[C@@H](O)[C@H]2O)c1-c1nc2c(C)nccc2s1` [Example 5120], the EC90 was less than 500 nM.

Turning to `Cc1nc(NC2(C3CC3)CC2)nc(NC2(CO)CCCC2)c1-c1nc2c(C)nccc2s1` [Example 5121], the concentration for an effect of 90% (EC90) is less than 500 nM.

As for `Cc1nc(NC2(C3CC3)CC2)nc(N[C@@H]2C[C@H]([C@@H](O)C(C)C)[C@@H](O)[C@H]2O)c1-c1nc2c(C)nccc2s1` [Example 5122], the EC90 was less than 500 nM.

Regarding `COCCNc1nc(C)c(-c2nc3c(C)nccc3s2)c(N[C@@H]2C[C@H]([C@@H](O)C(C)C)[C@@H](O)[C@H]2O)n1` [Example 5123], the EC90 is less than 500 nM.
